We go through two molecules from patent US11230717B2, “Plants having increased tolerance to herbicides” (BASF SE, priority 2013, dated 2022).

Test [1] concerns the target T1, Hordeum HPPD (SEQ ID NO:2) (Hordeum vulgare, UniProt O48604, A164G/R146V/R147D/R148G).
T1 construct: subcloned into a modified pET24D (Novagen) expression vector resulting in N-terminally His-tagged expression constructs; His (N); made in house; host or cells: E. coli BL21 (DE3)
Kind of test: HPPD activity assay, in vitro characterization. The test is classed as biochemical. How it is done: (§1) HPPD produces homogentisic acid and CO2 from 4-hydroxyphenylpyruvate (4-HPP) and O2. The activity assay for HPPD is based on the analysis of homogentisic acid by reversed phase HPLC.
(§2) The assay mixture can contain 150 mM potassium phosphate buffer pH 7.0, 50 mM L-ascorbic acid, 100 μM Catalase (Sigma-Aldrich), 1 μM FeSO4 and 0.2 units of purified HPPD enzyme in a total volume of 505 μl. 1 unit is defined as the amount of enzyme that is required to produce 1 nmol of HGA per minute at 20° C.
(§3) After a preincubation of 30 min the reaction is started by adding 4-HPP to a final concentration of 0.05 mM. The reaction is allowed to proceed for 45 min at room temperature. The reaction is stopped by the addition of 50 μl of 4.5 M phosphoric acid. The sample is filtered using a […] pore size PVDF filtration device.
(§4) 5 μl of the cleared sample is analyzed on an UPLC HSS T3 column (particle size 1.8 μm, dimensions 2,1×50 mm; Waters) by isocratic elution using 90% 20 mM NaH2PO4 pH 2.2, 10% methanol (v/v).
(§5) HGA is detected electrochemically at 750 mV (mode: DC; polarity: positive) and quantified by integrating peak areas (Empower software; Waters).
(§6) Inhibitors are dissolved in DMSO (dimethylsulfoxide) to a concentration of 0.5 mM. From this stock solution serial five-fold dilutions are prepared in DMSO, which are used in the assay. The respective inhibitor solution accounts for 1% of the assay volume. […] Activities are normalized by setting the uninhibited enzyme activity to 100%. IC50 values are calculated using non-linear regression.
(§7) Using methods which are described in the above examples or well known in the art, purified, recombinant wildtype HPPD enzymes are characterized with respect to their kinetic properties and sensitivity towards HPPD inhibiting herbicides. Apparent michaelis constants (Km) and maximal reaction velocities (Vmax) are calculated by non-linear regression with the software GraphPad Prism 5 (GraphPad Software, La Jolla, USA) using a substrate inhibition model. […] Weighted means (by standard error) of Km and IC50 values are calculated from at least three independent experiments. […] To assess the potential performance of a herbicide tolerance trait a tolerance index (TI) is calculated using the following formula: […]

The next test deals with T2, Arabidopsis HPPD (Arabidopsis thaliana, UniProt P93836).
T2 construct: His6 (N); made in house; host or cells: E. coli BL21 (DE3)
T2 sequence (P93836 1-445): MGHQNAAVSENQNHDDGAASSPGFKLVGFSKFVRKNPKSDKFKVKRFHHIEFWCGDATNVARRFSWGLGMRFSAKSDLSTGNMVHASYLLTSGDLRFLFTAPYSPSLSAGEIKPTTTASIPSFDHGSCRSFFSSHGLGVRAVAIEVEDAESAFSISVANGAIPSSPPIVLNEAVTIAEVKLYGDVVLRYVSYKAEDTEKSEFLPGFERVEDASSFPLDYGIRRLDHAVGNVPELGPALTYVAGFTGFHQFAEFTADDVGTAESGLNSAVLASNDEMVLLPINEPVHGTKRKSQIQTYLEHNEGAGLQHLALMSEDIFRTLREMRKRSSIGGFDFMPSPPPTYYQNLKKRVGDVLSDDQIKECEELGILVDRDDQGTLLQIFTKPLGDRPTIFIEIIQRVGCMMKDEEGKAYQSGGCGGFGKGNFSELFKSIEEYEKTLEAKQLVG
Nature of the test: HPPD activity assay (homogentisic acid by HPLC), in vitro characterization. The test is classed as biochemical. How it is done:
as §1, §2, §3, §4, §5, §6, §7

Test [2] concerns transgenic Arabidopsis plants. Nature of the test: Greenhouse testing of transgenic Arabidopsis plants (T2), herbicide spray test. It counts as in vivo, Arabidopsis thaliana. The following applies: for Injury evaluation, scale 0-100%: Arabidopsis. The protocol:
Transgenic plants expressing heterologous HPPD or HST enzymes are tested for tolerance against HPPD-inhibiting herbicides in greenhouse experiments.
For post emergence treatment, the test plants are first grown to a height of 3 to 15 cm, depending on the plant habit, and only then treated with the herbicides. For this purpose, the test plants are either sown directly and grown in the same containers, or they are first grown separately and transplanted into the test containers a few days prior to treatment. For testing of T0 plants, cuttings can be used. In the case of soybean plants, an optimal shoot for cutting is about 7.5 to 10 cm tall, with at least two nodes present. Each cutting is taken from the original transformant (mother plant) and dipped into rooting hormone powder (indole-3-butyric acid, IBA). The cutting is then placed in oasis wedges inside a bio-dome. Wild type cuttings are also taken simultaneously to serve as controls. The cuttings are kept in the bio-dome for 5-7 days and then transplanted to pots and then acclimated in the growth chamber for two more days. Subsequently, the cuttings are transferred to the greenhouse, acclimated for approximately 4 days, and then subjected to spray tests as indicated.
Additionally, T1 and T2 transgenic Arabidopsis plants can be tested for improved tolerance to HPPD-inhibiting herbicides in a greenhouse studies. Herbicide injury scoring is done 2-3 weeks after treatment and is rated on a scale of 0 to 100%, 0% being no injury and 100% being complete death.

T1 sequence (O48604 whole entry R146V/R147D/R148G/A164G): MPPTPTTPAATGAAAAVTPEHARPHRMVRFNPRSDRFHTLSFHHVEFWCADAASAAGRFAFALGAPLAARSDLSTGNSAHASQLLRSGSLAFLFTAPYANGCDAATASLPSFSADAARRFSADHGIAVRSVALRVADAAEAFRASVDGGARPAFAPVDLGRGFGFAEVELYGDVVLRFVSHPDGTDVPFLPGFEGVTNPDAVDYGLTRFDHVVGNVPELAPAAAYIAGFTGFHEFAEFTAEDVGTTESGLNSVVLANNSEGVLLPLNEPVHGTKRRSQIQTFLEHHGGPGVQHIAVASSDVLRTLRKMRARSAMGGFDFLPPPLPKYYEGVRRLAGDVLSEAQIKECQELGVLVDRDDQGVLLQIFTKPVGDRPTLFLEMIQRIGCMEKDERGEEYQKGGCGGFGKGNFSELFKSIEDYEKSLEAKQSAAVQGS

By Km is commonly meant the concentration of substrate that gives half-maximal velocity. By kcat is commonly meant the maximal rate divided by the concentration of active sites. Regarding `O=C(O)C(=O)Cc1ccc(O)cc1` [Inhibitor 4-HPP, 4-hydroxyphenylpyruvate, reference compound], the Km in test [1] (Hordeum HPPD, apparent michaelis constant, read-out: Km (4-HPP)) stood at 26 µM; at Arabidopsis HPPD (Arabidopsis HPPD, apparent michaelis constant, read-out: Km (4-HPP)), 13 µM. For the same molecule, the kcat in test [1] (Hordeum HPPD, turnover number, substrate 4-HPP) amounted to 11.5 s⁻¹; at Arabidopsis HPPD (Arabidopsis HPPD, turnover number, substrate 4-HPP), 12.9 s⁻¹.
The Ki is a dissociation constant, usually derived from enzyme kinetics or from competition with a known ligand. Lower therefore signals tighter binding. As to `CSc1c(Cl)cc(F)c(C(=O)Nc2nnnn2C)c1Cl` [Inhibitor 2, 2,4-dichloro-6-fluoro-3-methylsulfanyl-N-(1-methyltetrazol-5-yl)benzamide], the tolerance factor entry in test [2] (Arabidopsis HvL320H, P321A, highest rate active ingredient applied) is “outstanding tolerance factor”. Besides, in test [2] (Arabidopsis expressing Rhodococcus HPPD (SEQ ID NO:46), highest concentration), the “tolerance compared to untransformed wild-type control” value came out at 2 fold. Besides, the “Injury evaluation, scale 0-100%” value turned out to be 20% in test [2] (transgene AtF381I, 3.125 g/ha, two weeks); 25% in test [2] (transgene AtF381I, 6.25 g/ha, two weeks); 40% in test [2] (transgene AtF381I, 12.5 g/ha, two weeks); 0% in test [2] (transgene AtM335H, P336A, E363Q, 1.56 g/ha, two weeks); 7% in test [2] (transgene AtM335H, P336A, E363Q, 3.125 g/ha, two weeks); 7% in test [2] (transgene AtM335H, P336A, E363Q, 6.25 g/ha, two weeks). Moreover, the “Injury evaluation, scale 0-100%” value came out at 47% in test [2] (transgene AtM335H, P336A, E363Q, 12.5 g/ha, two weeks); 0% in test [2] (transgene HvL320H, P321A, 1.56 g/ha, two weeks); 5% in test [2] (transgene HvL320H, P321A, 3.125 g/ha, two weeks); 7% in test [2] (transgene HvL320H, P321A, 6.25 g/ha, two weeks); 8% in test [2] (transgene HvL320H, P321A, 12.5 g/ha, two weeks); 0% in test [2] (transgene HvL320H, 1.56 g/ha, two weeks). Further, the “Injury evaluation, scale 0-100%” value in test [2] (transgene HvL320H, 3.125 g/ha, two weeks) was 12%; in test [2] (transgene HvL320H, 6.25 g/ha, two weeks), 18%; in test [2] (transgene HvL320H, 12.5 g/ha, two weeks), 33%; in test [2] (transgene None, 1.56 g/ha, two weeks after treatment), 86%; in test [2] (transgene None, 3.125 g/ha, two weeks after treatment), 87%; in test [2] (transgene None, 6.25 g/ha, two weeks after treatment), 98%. Also, the “Injury evaluation, scale 0-100%” value was 94% in test [2] (transgene None, 12.5 g/ha, two weeks after treatment); 2% in test [2] (transgene RjHPPD, 1.56 g/ha, two weeks); 12% in test [2] (transgene RjHPPD, 3.125 g/ha, two weeks); 13% in test [2] (transgene RjHPPD, 6.25 g/ha, two weeks); 46% in test [2] (transgene RjHPPD, 12.5 g/ha, two weeks). For the same molecule, the Ki in test [1] came out at 0.011 µM; on Arabidopsis HPPD, 0.02 µM.
